# Measured values published in PubChem BioAssay (NCI).
#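 Dose response: 5 concentrations. Exposure: 48 h. Format: 96-well plates. Endpoint: linear interpolation; highest concentration if not reached. TGI denotes the concentration required for complete inhibition of growth.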
# Legend:
# Assay in all cases: NCI-60 cell line screen, 48 h
# [1] = tested on: 786-0 renal
# [2] = tested on: A498 renal
# [3] = tested on: A549 NSCLC
# [4] = tested on: ACHN renal
# [5] = tested on: CAKI-1 renal
# [6] = tested on: CCRF-CEM leukemia
# [7] = tested on: DLD-1 colon
# [8] = tested on: DMS 114 small cell lung
# [9] = tested on: DMS 273 small cell lung
# [10] = tested on: EKVX NSCLC
# [11] = tested on: HCC-2998 colon
# [12] = tested on: HCT-116 colon
# [13] = tested on: HCT-15 colon
# [14] = tested on: HL-60(TB) leukemia
# [15] = tested on: HOP-18 NSCLC
# [16] = tested on: HOP-62 NSCLC
# [17] = tested on: HOP-92 NSCLC
# [18] = tested on: HT29 colon
# [19] = tested on: IGROV1 ovarian
# [20] = tested on: K-562 leukemia
# [21] = tested on: KM12 colon
# [22] = tested on: KM20L2 colon
# [23] = tested on: LOX IMVI melanoma
# [24] = tested on: LXFL 529 NSCLC
# [25] = tested on: M14 melanoma
# [26] = tested on: M19-MEL melanoma
# [27] = tested on: MALME-3M melanoma
# [28] = tested on: MOLT-4 leukemia
# [29] = tested on: NCI-H226 lung
# [30] = tested on: NCI-H23 lung
# [31] = tested on: NCI-H460 lung
# [32] = tested on: OVCAR-3 ovarian
# [33] = tested on: OVCAR-4 ovarian
# [34] = tested on: OVCAR-5 ovarian
# [35] = tested on: OVCAR-8 ovarian
# [36] = tested on: RPMI-8226 leukemia
# [37] = tested on: RXF 393 renal
# [38] = tested on: SF-268 CNS
# [39] = tested on: SF-295 CNS
# [40] = tested on: SF-539 CNS
# [41] = tested on: SK-MEL-2 melanoma
# [42] = tested on: SK-MEL-28 melanoma
# [43] = tested on: SK-MEL-5 melanoma
# [44] = tested on: SN12C renal
# [45] = tested on: SNB-19 CNS
# [46] = tested on: SNB-75 CNS
# [47] = tested on: SNB-78 CNS
# [48] = tested on: SR leukemia
# [49] = tested on: SW-620 colon
# [50] = tested on: TK-10 renal
# [51] = tested on: UACC-257 melanoma
# [52] = tested on: UACC-62 melanoma
# [53] = tested on: UO-31 renal
# [54] = tested on: XF 498 CNS
# [55] = tested on: NCI-H522 lung
# [56] = tested on: RXF-631 renal
# [57] = tested on: SK-OV-3 ovarian
# [58] = tested on: U251 CNS
# [59] = tested on: COLO 205 colon
compound,measurement,setting,value
C/C(CCn1[nH]c(=O)ccc1=O)=N\N=C(N)N,TGI,[1],> 100 µM
same,TGI,[2],> 100 µM
same,TGI,[3],> 100 µM
same,TGI,[4],> 100 µM
same,TGI,[5],> 100 µM
same,TGI,[6],> 100 µM
same,TGI,[7],> 100 µM
same,TGI,[8],> 100 µM
same,TGI,[9],> 100 µM
same,TGI,[10],> 100 µM
same,TGI,[11],> 100 µM
same,TGI,[12],> 100 µM
same,TGI,[13],> 100 µM
same,TGI,[14],> 100 µM
same,TGI,[15],> 100 µM
same,TGI,[16],> 100 µM
same,TGI,[17],> 100 µM
same,TGI,[18],> 100 µM
same,TGI,[19],> 100 µM
same,TGI,[20],> 100 µM
same,TGI,[21],> 100 µM
same,TGI,[22],> 100 µM
same,TGI,[23],> 100 µM
same,TGI,[24],> 100 µM
same,TGI,[25],> 100 µM
same,TGI,[26],> 100 µM
same,TGI,[27],> 100 µM
same,TGI,[28],> 100 µM
same,TGI,[29],> 100 µM
same,TGI,[30],> 100 µM
same,TGI,[31],> 100 µM
same,TGI,[32],> 100 µM
same,TGI,[33],> 100 µM
same,TGI,[34],> 100 µM
same,TGI,[35],> 100 µM
same,TGI,[36],> 100 µM
same,TGI,[37],> 100 µM
same,TGI,[38],> 100 µM
same,TGI,[39],> 100 µM
same,TGI,[40],> 100 µM
same,TGI,[41],> 100 µM
same,TGI,[42],> 100 µM
same,TGI,[43],> 100 µM
same,TGI,[44],> 100 µM
same,TGI,[45],> 100 µM
same,TGI,[46],> 100 µM
same,TGI,[47],> 100 µM
same,TGI,[48],> 100 µM
same,TGI,[49],> 100 µM
same,TGI,[50],> 100 µM
same,TGI,[51],> 100 µM
same,TGI,[52],> 100 µM
same,TGI,[53],> 100 µM
same,TGI,[54],> 100 µM
CCOc1nc(OCC)nc(-c2cccn2-c2ccccc2)n1,TGI,[1],> 100 µM
same,TGI,[2],> 100 µM
same,TGI,[3],> 100 µM
same,TGI,[4],> 100 µM
same,TGI,[5],> 100 µM
same,TGI,[6],> 100 µM
same,TGI,[8],86.8 µM
same,TGI,[9],> 100 µM
same,TGI,[10],> 100 µM
same,TGI,[11],> 100 µM
same,TGI,[12],> 100 µM
same,TGI,[13],> 100 µM
same,TGI,[14],82.5 µM
same,TGI,[16],> 100 µM
same,TGI,[18],> 100 µM
same,TGI,[19],89.3 µM
same,TGI,[20],> 100 µM
same,TGI,[21],> 100 µM
same,TGI,[25],> 100 µM
same,TGI,[26],> 100 µM
same,TGI,[27],60.6 µM
same,TGI,[28],57.4 µM
same,TGI,[29],> 100 µM
same,TGI,[30],> 100 µM
same,TGI,[31],> 100 µM
same,TGI,[55],> 100 µM
same,TGI,[32],69.3 µM
same,TGI,[33],> 100 µM
same,TGI,[34],> 100 µM
same,TGI,[35],> 100 µM
same,TGI,[37],> 100 µM
same,TGI,[56],> 100 µM
same,TGI,[38],> 100 µM
same,TGI,[39],> 100 µM
same,TGI,[40],> 100 µM
same,TGI,[41],97.1 µM
same,TGI,[42],> 100 µM
same,TGI,[57],75 µM
same,TGI,[44],> 100 µM
same,TGI,[45],> 100 µM
same,TGI,[47],> 100 µM
same,TGI,[48],99.7 µM
same,TGI,[49],> 100 µM
same,TGI,[50],89.2 µM
same,TGI,[58],48.6 µM
same,TGI,[51],> 100 µM
same,TGI,[52],> 100 µM
same,TGI,[53],67.9 µM
COC(=O)C(C(=O)C(=O)Nc1nc2ccc([N+](=O)[O-])cc2s1)c1nc2ccc(Cl)cc2[nH]c1=O (centres undefined),TGI,[1],> 100 µM
same,TGI,[2],> 100 µM
same,TGI,[3],> 100 µM
same,TGI,[4],> 100 µM
same,TGI,[5],> 100 µM
same,TGI,[6],> 100 µM
same,TGI,[59],> 100 µM
same,TGI,[7],> 100 µM
same,TGI,[8],> 100 µM
same,TGI,[9],> 100 µM
same,TGI,[10],> 100 µM
same,TGI,[11],> 100 µM
same,TGI,[12],> 100 µM
same,TGI,[13],> 100 µM
same,TGI,[14],> 100 µM
same,TGI,[15],> 100 µM
same,TGI,[16],> 100 µM
same,TGI,[18],> 100 µM
same,TGI,[19],> 100 µM
same,TGI,[20],> 100 µM
same,TGI,[21],> 100 µM
same,TGI,[22],> 100 µM
same,TGI,[23],> 100 µM
same,TGI,[24],> 100 µM
same,TGI,[25],> 100 µM
same,TGI,[26],> 100 µM
same,TGI,[27],> 100 µM
same,TGI,[28],> 100 µM
same,TGI,[29],> 100 µM
same,TGI,[30],> 100 µM
same,TGI,[31],> 100 µM
same,TGI,[55],> 100 µM
same,TGI,[32],> 100 µM
same,TGI,[33],> 100 µM
same,TGI,[34],> 100 µM
same,TGI,[35],> 100 µM
same,TGI,[36],> 100 µM
same,TGI,[37],> 100 µM
same,TGI,[56],> 100 µM
same,TGI,[38],> 100 µM
same,TGI,[39],> 100 µM
same,TGI,[40],> 100 µM
same,TGI,[41],> 100 µM
same,TGI,[42],> 100 µM
same,TGI,[43],> 100 µM
same,TGI,[57],> 100 µM
same,TGI,[44],> 100 µM
same,TGI,[45],> 100 µM
same,TGI,[46],> 100 µM
same,TGI,[47],> 100 µM
same,TGI,[48],> 100 µM
same,TGI,[49],> 100 µM
same,TGI,[50],> 100 µM
same,TGI,[58],> 100 µM
same,TGI,[51],> 100 µM
same,TGI,[52],> 100 µM
same,TGI,[53],> 100 µM
